According to patent US6339045B1, “N-(unsubstituted or substituted)-4-substituted-6-(unsubstituted or substituted)phenoxy-2-pyridinecarboxamides or thiocarboxamides, processes for producing the same, and herbicides” (Kureha Kagaku Kogyo Kabushiki Kaisha, priority 1995, dated 2002):

How the values were obtained:
Experiment in all cases: Herbicidal effect by foliage and soil treatment
Type in all cases: in vivo
Conditions in all cases: 10 g ai/10a, evaluated after 14 days
[1] = tested on: field bindweed (Convolvulus arvensis)
Method in brief: (§1)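 Greenhouse pot test at 19–25 °C: spray of aqueous Tween 20 formulation onto foliage and soil of seedlings at cotyledonal–bifoliate stage, dose per area predetermined. Scoring on a rating scale after 14 days versus untreated.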

[2] = tested on: common blackjack (Bidens pilosa)
Method in brief: as §1

[3] = tested on: sicklepod (Cassia obtusifolia)
Method in brief: as §1

[4] = tested on: redroot pigweed (Amaranthus retroflexus)
Method in brief: as §1

[5] = tested on: cleavers (Galium aparine)
Method in brief: as §1

[6] = tested on: ivyleafspeedwell (Veronica hederaefolia)
Method in brief: as §1

[7] = tested on: kediock (Sinapis arvensis)
Method in brief: as §1

[8] = tested on: velvetleaf (Abutilon theophrasti)
Method in brief: as §1

[9] = tested on: black nightshade (Solanum nigrum)
Method in brief: as §1

[10] = tested on: wild chamomile (Matricaria chamomilla)
Method in brief: as §1

[11] = tested on: common chickweed (Stellaria media)
Method in brief: as §1

SMILES	herbicidal activity rating, CA (Convolvulus arvensis) [1]	herbicidal activity rating, BP (Bidens pilosa) [2]	herbicidal activity rating, CO (Cassia obtusifolia) [3]	herbicidal activity rating, AR (Amaranthus retroflexus) [4]	herbicidal activity rating, GA (Galium aparine) [5]	herbicidal activity rating, VH (Veronica hederaefolia) [6]	herbicidal activity rating, SA (Sinapis arvensis) [7]	herbicidal activity rating, AT (Abutilon theophrasti) [8]	herbicidal activity rating, SN (Solanum nigrum) [9]	herbicidal activity rating, MC (Matricaria chamomilla) [10]	herbicidal activity rating, SM (Stellaria media) [11]
COc1cc(Oc2cccc(C(F)(F)F)c2)nc(C(=O)NCC2CC2)c1 [Compound I-85]	4 (percentage of weeds killed was not less than 60% and less than 80%)	4 (percentage of weeds killed was not less than 60% and less than 80%)	5 (percentage of weeds killed was not less than 80%)	5 (percentage of weeds killed was not less than 80%)	5 (percentage of weeds killed was not less than 80%)	5 (percentage of weeds killed was not less than 80%)	5 (percentage of weeds killed was not less than 80%)	5 (percentage of weeds killed was not less than 80%)	5 (percentage of weeds killed was not less than 80%)	5 (percentage of weeds killed was not less than 80%)	5 (percentage of weeds killed was not less than 80%)
CCC(=O)CNC(=O)c1cc(OC)cc(Oc2cccc(C(F)(F)F)c2)n1 [Compound I-86, N-(2-oxobutyl)-4-methoxy-6-{3-(trifluoromethyl)phenoxy}-2-pyridine carboxamide]	3 (percentage of weeds killed was not less than 40% and less than 60%)	4 (percentage of weeds killed was not less than 60% and less than 80%)	4 (percentage of weeds killed was not less than 60% and less than 80%)	5 (percentage of weeds killed was not less than 80%)	5 (percentage of weeds killed was not less than 80%)	5 (percentage of weeds killed was not less than 80%)	5 (percentage of weeds killed was not less than 80%)	5 (percentage of weeds killed was not less than 80%)	5 (percentage of weeds killed was not less than 80%)	4 (percentage of weeds killed was not less than 60% and less than 80%)	5 (percentage of weeds killed was not less than 80%)
CCOCNC(=O)c1cc(OC)cc(Oc2cccc(C(F)(F)F)c2)n1 [Compound I-87, N-(ethoxymethyl)-4-methoxy-6-{3-(trifluoromethyl)phenoxy}-2-pyridine carboxamide]	5 (percentage of weeds killed was not less than 80%)	5 (percentage of weeds killed was not less than 80%)	5 (percentage of weeds killed was not less than 80%)	5 (percentage of weeds killed was not less than 80%)	5 (percentage of weeds killed was not less than 80%)	5 (percentage of weeds killed was not less than 80%)	5 (percentage of weeds killed was not less than 80%)	5 (percentage of weeds killed was not less than 80%)	5 (percentage of weeds killed was not less than 80%)	5 (percentage of weeds killed was not less than 80%)	5 (percentage of weeds killed was not less than 80%)
COc1cc(Oc2cccc(C(F)(F)F)c2)nc(C(=O)NC(OC)C(F)(F)F)c1 (centres unmarked) [Compound I-88, N-(1-methoxy-2,2,2-trifluoroethyl)-4-methoxy-6-{3-(trifluoromethyl)phenoxy}-2-pyridine carboxamide]	5 (percentage of weeds killed was not less than 80%)	3 (percentage of weeds killed was not less than 40% and less than 60%)	5 (percentage of weeds killed was not less than 80%)	5 (percentage of weeds killed was not less than 80%)	5 (percentage of weeds killed was not less than 80%)	5 (percentage of weeds killed was not less than 80%)	5 (percentage of weeds killed was not less than 80%)	5 (percentage of weeds killed was not less than 80%)	5 (percentage of weeds killed was not less than 80%)	2 (percentage of weeds killed was not less than 20% and less than 40%)	5 (percentage of weeds killed was not less than 80%)
COc1cc(Oc2cccc(C(F)(F)F)c2)nc(C(=O)NCCO)c1 [Compound I-89]	4 (percentage of weeds killed was not less than 60% and less than 80%)	5 (percentage of weeds killed was not less than 80%)	5 (percentage of weeds killed was not less than 80%)	5 (percentage of weeds killed was not less than 80%)	5 (percentage of weeds killed was not less than 80%)	5 (percentage of weeds killed was not less than 80%)	5 (percentage of weeds killed was not less than 80%)	4 (percentage of weeds killed was not less than 60% and less than 80%)	5 (percentage of weeds killed was not less than 80%)	3 (percentage of weeds killed was not less than 40% and less than 60%)	5 (percentage of weeds killed was not less than 80%)
COc1cc(Oc2cccc(C(F)(F)F)c2)nc(C(=O)NCCOCCF)c1 [Compound I-90]	4 (percentage of weeds killed was not less than 60% and less than 80%)	5 (percentage of weeds killed was not less than 80%)	5 (percentage of weeds killed was not less than 80%)	5 (percentage of weeds killed was not less than 80%)	5 (percentage of weeds killed was not less than 80%)	5 (percentage of weeds killed was not less than 80%)	5 (percentage of weeds killed was not less than 80%)	3 (percentage of weeds killed was not less than 40% and less than 60%)	5 (percentage of weeds killed was not less than 80%)	2 (percentage of weeds killed was not less than 20% and less than 40%)	5 (percentage of weeds killed was not less than 80%)
COc1cc(Oc2cccc(C(F)(F)F)c2)nc(C(=O)NCCSCCF)c1 [Compound I-92, N-{2-(2-fluoroethylmercapto)ethyl}-4-methoxy-6-{3-(trifluoromethyl)phenoxy}-2-pyridine carboxamide]	4 (percentage of weeds killed was not less than 60% and less than 80%)	4 (percentage of weeds killed was not less than 60% and less than 80%)	5 (percentage of weeds killed was not less than 80%)	5 (percentage of weeds killed was not less than 80%)	5 (percentage of weeds killed was not less than 80%)	5 (percentage of weeds killed was not less than 80%)	5 (percentage of weeds killed was not less than 80%)	3 (percentage of weeds killed was not less than 40% and less than 60%)	5 (percentage of weeds killed was not less than 80%)	3 (percentage of weeds killed was not less than 40% and less than 60%)	4 (percentage of weeds killed was not less than 60% and less than 80%)
